Key:
Experiment in all cases: relative viability (nuclei count vs DMSO), 5 days (fraction); higher = more cells survive
[1] = compound: C1CC(C1)(C(=O)O)C(=O)O.[NH2-].[NH2-].[Pt+2] [Carboplatin] + Nc1ncn([C@H]2C[C@H](O)[C@@H](CO)O2)c(=O)n1 [Decitabine] (partner 2 µM)
How it was run: (§1)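 Each reported value is a median over duplicate plates. It expresses relative viability: treated-well nuclei count divided by vehicle-well nuclei count. Lung cancer cell lines in 1536-well plates were dosed by pin tool a day after seeding, alone with one drug or with a fixed anchor-drug dose plus five library-drug doses (not always all listed) in √10 steps, and nuclei were counted after 5 days.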

[2] = compound: C1CC(C1)(C(=O)O)C(=O)O.[NH2-].[NH2-].[Pt+2] [Carboplatin] + COc1cccc2cc(-c3nc([C@H]4CC[C@H](C(=O)O)CC4)n4ncnc(N)c34)[nH]c12 [OSI-027] (partner 0.5 µM)
How it was run: as §1

[3] = compound: CC[C@H](C)N1C=C(C2=C(C=C(C=C21)C3=CN=C(C=C3)N4CCNCC4)C(=O)NCC5=C(C=C(NC5=O)C)C)C [GSK126] + Nc1ncn([C@H]2C[C@H](O)[C@@H](CO)O2)c(=O)n1 [Decitabine] (partner 2 µM)
How it was run: as §1

[4] = compound: NS(=O)(=O)OC[C@@H]1C[C@@H](n2ccc3c(N[C@H]4CCc5ccccc54)ncnc32)C[C@@H]1O [MLN4924] + COc1cc2c(Oc3ccc(NC(=O)C4(C(=O)Nc5ccc(F)cc5)CC4)cc3F)ccnc2cc1OCCCN1CCOCC1 [Foretinib] (partner 0.25 µM)
How it was run: as §1

| Cell Line | relative viability ([1]; first compound 0.08 µM) | relative viability ([1]; first compound 0.253 µM) | relative viability ([1]; first compound 0.8 µM) | relative viability ([1]; first compound 2.53 µM) | relative viability ([1]; first compound 8 µM) | relative viability ([2]; first compound 0.08 µM) | relative viability ([2]; first compound 0.253 µM) | relative viability ([2]; first compound 0.8 µM) | relative viability ([2]; first compound 2.53 µM) | relative viability ([2]; first compound 8 µM) | relative viability ([3]; first compound 0.08 µM) | relative viability ([3]; first compound 0.253 µM) | relative viability ([3]; first compound 0.8 µM) | relative viability ([3]; first compound 2.53 µM) | relative viability ([3]; first compound 8 µM) | relative viability ([4]; first compound 0.04 µM) | relative viability ([4]; first compound 0.1265 µM) | relative viability ([4]; first compound 0.4 µM) | relative viability ([4]; first compound 1.265 µM) | relative viability ([4]; first compound 4 µM) |
| --- | --- | --- | --- | --- | --- | --- | --- | --- | --- | --- | --- | --- | --- | --- | --- | --- | --- | --- | --- | --- |
| NCI-H1650 | 0.426 | 0.498 | 0.425 | 0.365 | 0.308 | 0.736 | 0.593 | 0.653 | 0.574 | 0.341 | 0.437 | 0.541 | 0.522 | 0.402 | 0.495 | 0.92 | 0.951 | 0.325 | 0.217 | 0.19 |
| NCI-H1651 | 0.773 | 0.633 | 0.589 | 0.574 | 0.509 | 0.734 | 0.662 | 0.706 | 0.506 | 0.487 | 0.64 | 0.634 | 0.606 | 0.772 | 0.624 | 0.74 | 0.754 | 0.656 | 0.436 | 0.173 |
| NCI-H1666 | 0.715 | 0.824 | 0.774 | 0.752 | 0.653 | 0.831 | 0.818 | 0.831 | 0.644 | 0.566 | 0.731 | 0.755 | 0.755 | 0.82 | 0.726 | 1.02 | 0.696 | 0.541 | 0.304 | 0.346 |
| NCI-H1734 | 0.485 | 0.46 | 0.483 | 0.465 | 0.438 | 0.707 | 0.674 | 0.63 | 0.528 | 0.572 | 0.511 | 0.517 | 0.492 | 0.515 | 0.496 | 0.938 | 0.866 | 0.241 | 0.145 | 0.134 |
| NCI-H1755 | 0.702 | 0.674 | 0.737 | 0.668 | 0.607 | 0.823 | 0.786 | 0.712 | 0.729 | 0.74 | 0.696 | 0.68 | 0.684 | 0.662 | 0.714 | 0.979 | 0.804 | 0.421 | 0.243 | 0.184 |
| NCI-H1793 | 0.464 | 0.538 | 0.503 | 0.452 | 0.357 | 0.32 | 0.337 | 0.284 | 0.296 | 0.312 | 0.601 | 0.423 | 0.48 | 0.567 | 0.475 | 0.822 | 1.08 | 0.957 | 0.461 | 0.256 |
| NCI-H1915 | 0.264 | 0.258 | 0.249 | 0.23 | 0.258 | 0.616 | 0.576 | 0.673 | 0.601 | 0.408 | 0.277 | 0.262 | 0.262 | 0.256 | 0.252 | 1.07 | 0.929 | 0.906 | 0.314 | 0.232 |
| NCI-H1944 | 0.456 | 0.456 | 0.437 | 0.417 | 0.363 | 0.539 | 0.407 | 0.41 | 0.382 | 0.317 | 0.526 | 0.413 | 0.419 | 0.433 | 0.411 | 0.771 | 0.58 | 0.301 | 0.182 | 0.161 |
| NCI-H1975 | 0.416 | 0.399 | 0.402 | 0.43 | 0.367 | 0.901 | 0.823 | 0.713 | 0.762 | 0.754 | 0.427 | 0.321 | 0.431 | 0.397 | 0.377 | 0.962 | 1.08 | 1.27 | 0.488 | 0.207 |
| NCI-H1993 | 0.64 | 0.661 | 0.559 | 0.559 | 0.473 | 0.463 | 0.556 | 0.566 | 0.51 | 0.498 | 0.686 | 0.597 | 0.575 | 0.555 | 0.605 | 0.624 | 0.59 | 0.517 | 0.553 | 0.602 |
| NCI-H2009 | 0.352 | 0.379 | 0.345 | 0.364 | 0.357 | 0.699 | 0.597 | 0.61 | 0.56 | 0.402 | 0.372 | 0.334 | 0.45 | 0.403 | 0.381 | 1.02 | 0.494 | 0.344 | 0.193 | 0.104 |
| NCI-H2023 | 0.238 | 0.224 | 0.185 | 0.141 | 0.129 | 0.481 | 0.424 | 0.318 | 0.198 | 0.123 | 0.267 | 0.232 | 0.205 | 0.209 | 0.219 | 0.987 | 0.719 | 0.406 | 0.0781 | 0.0729 |
| NCI-H2085 | 0.548 | 0.57 | 0.506 | 0.544 | 0.474 | 0.719 | 0.849 | 0.783 | 0.64 | 0.628 | 0.551 | 0.511 | 0.588 | 0.615 | 0.518 | 1.04 | 0.855 | 0.809 | 0.655 | 0.401 |
| NCI-H2087 | 0.242 | 0.28 | 0.307 | 0.227 | 0.237 | 0.656 | 0.56 | 0.536 | 0.508 | 0.41 | 0.246 | 0.272 | 0.269 | 0.293 | 0.346 | 1.13 | 0.669 | 0.419 | 0.107 | 0.0968 |
| NCI-H2126 | 0.607 | 0.573 | 0.544 | 0.59 | 0.51 | 0.812 | 0.654 | 0.677 | 0.635 | 0.595 | 0.567 | 0.591 | 0.609 | 0.622 | 0.593 | 1.14 | 0.87 | 1.08 | 0.335 | 0.267 |
| NCI-H2170 | 0.507 | 0.476 | 0.465 | 0.428 | 0.343 | 0.715 | 0.723 | 0.86 | 0.783 | 0.605 | 0.517 | 0.467 | 0.44 | 0.467 | 0.444 | 1.02 | 0.277 | 0.28 | 0.199 | 0.227 |
| NCI-H2342 | 0.675 | 0.729 | 0.661 | 0.721 | 0.594 | 0.785 | 0.731 | 0.717 | 0.534 | 0.608 | 0.75 | 0.7 | 0.7 | 0.628 | 0.812 | 1.17 | 1.06 | 1.24 | 0.76 | 0.472 |
| NCI-H2347 | 0.615 | 0.428 | 0.621 | 0.653 | 0.552 | 0.42 | 0.421 | 0.409 | 0.423 | 0.324 | 0.478 | 0.588 | 0.607 | 0.567 | 0.648 | 0.832 | 0.906 | 0.567 | 0.528 | 0.402 |
| NCI-H2405 | 0.705 | 0.784 | 0.809 | 0.659 | 0.442 | 0.683 | 0.624 | 0.624 | 0.642 | 0.56 | 0.757 | 0.66 | 0.71 | 0.747 | 0.729 | 1.08 | 0.928 | 0.76 | 0.319 | 0.293 |
| NCI-H3122 | 0.49 | 0.433 | 0.437 | 0.397 | 0.436 | 0.985 | 1.24 | 0.828 | 0.732 | 0.752 | 0.417 | 0.373 | 0.386 | 0.466 | 0.543 | 0.903 | 0.385 | 0.232 | 0.106 | 0.0762 |
| PC-3 [JPC-3] | 0.835 | 0.75 | 0.795 | 0.734 | 0.7 | 0.88 | 0.821 | 0.754 | 0.729 | 0.588 | 0.831 | 0.74 | 0.826 | 0.86 | 0.881 | 1.05 | 0.976 | 0.688 | 0.375 | 0.293 |
| PC-14 | 0.179 | 0.209 | 0.165 | 0.119 | 0.0887 | 0.864 | 0.923 | 0.716 | 0.369 | 0.133 | 0.215 | 0.2 | 0.166 | 0.255 | 0.213 | 1.1 | 0.852 | 0.43 | 0.174 | 0.139 |
| RERF-LC-KJ | 0.627 | 0.665 | 0.646 | 0.574 | 0.422 | 0.585 | 0.639 | 0.541 | 0.464 | 0.343 | 0.717 | 0.731 | 0.715 | 0.735 | 0.779 | 0.745 | 0.482 | 0.247 | 0.202 | 0.216 |
| SK-LU-1 | 0.719 | 0.677 | 0.625 | 0.586 | 0.46 | 0.444 | 0.387 | 0.339 | 0.292 | 0.213 | 0.711 | 0.535 | 0.6 | 0.928 | 0.708 | 0.924 | 0.615 | 0.26 | 0.14 | 0.174 |
| SK-MES-1 | 0.419 | 0.415 | 0.345 | 0.341 | 0.341 | 0.684 | 0.609 | 0.699 | 0.628 | 0.553 | 0.41 | 0.463 | 0.418 | 0.391 | 0.431 | 1.11 | 1.11 | 0.646 | 0.213 | 0.239 |
| SW 900 | 0.431 | 0.361 | 0.42 | 0.395 | 0.377 | 0.726 | 0.533 | 0.49 | 0.465 | 0.412 | 0.444 | 0.356 | 0.459 | 0.487 | 0.462 | 0.762 | 0.682 | 0.315 | 0.179 | 0.107 |
| SW 1573 | 0.493 | 0.524 | 0.587 | 0.4 | 0.26 | 0.653 | 0.694 | 0.67 | 0.617 | 0.437 | 0.648 | 0.463 | 0.431 | 0.573 | 0.517 | 0.967 | 0.982 | 0.875 | 0.156 | 0.0921 |

— the supplement of paper PMC10307832
